Measurements reported in patent publication US20200038418A1, “METHODS OF TREATING AUTISM SPECTRUM DISORDER USING AMINOSTEROL COMPOSITIONS” (Enterin, Inc., priority 2018, published 2020).
Where “and” joins values, the source holds several entries; their conditions need not be identical. Equal values may be shown once.

What was measured:
[1] = Phase 2 trial Stage 1, adverse events; format: in vivo, human; details: Stage 1 (10 dosed), single oral doses
From the text: Tolerability limits included diarrhea or vomiting.

[2] = tested on: patients with PD and constipation; assay: Stage 2 bowel function, stool related indices; format: in vivo, human; details: Stage 2, fixed dose, n = 34
Protocol: Following successful screening, all subjects underwent a 14-day run-in period where the degree of constipation was assessed through a validated daily log (Zinsmeister et al., 2013) establishing baseline CSBMs/week. Subjects with an average of <3 CSBMs/week proceeded to dosing.
In Stage 2, 34 patients were evaluated.
The primary efficacy outcome variable was whether or not a subject was a “success” or “failure.” This is an endpoint based on subject diary entries for the “fixed dose” period prior to the endpoint assessment defined as average complete stool frequency increase by 1 or more over baseline, or 3 or more complete spontaneous stools/week. The subject was deemed a “success” if s/he met one or more of the criteria listed above, otherwise the subject was deemed a “failure.” The primary analysis was based on all subjects with a baseline assessment and an assessment at the end of the “fixed-dose” period and was a comparison of the proportion of successes with 0.10 (the null hypothesis corresponding to no treatment effect).

[3] = tested on: patients with PD and constipation; assay: Circadian rhythm of wrist skin temperature; format: in vivo, human
Protocol: (6) I-Button Temperature Assessment. The I-Button is a small, rugged self-sufficient system that measures temperature and records the results in a protected memory section. The Thermochron I-Button DS1921H (Maxim Integrated, Dallas, Tex.) was used for skin temperature measurement. I-Buttons were programmed to sample every 10 mins., and attached to a double-sided cotton sport wrist band using Velcro, with the sensor face of the I-Button placed over the inside of the wrist, on the radial artery of the dominant hand. Subjects removed and replaced the data logger when necessary (i.e., to have a bath or shower). The value of skin temperature assessment in sleep research is that the endogenous skin warming resulting from increased skin blood flow is functionally linked to sleep propensity. From the collected data, the mesor, amplitude, acrophase (time of peak temperature), Rayleight test (an index of interdaily stability), mean waveforms are calculated);
Assessments were made at baseline and at the end of the fixed dose and washout periods. Circadian system status was evaluated by continuously monitoring wrist skin temperature (Thermochron iButton DS1921H; Maxim, Dallas) following published procedures (Sarabia et al. 2008).
Circadian rhythm of skin temperature was evaluable in 12 patients (i.e., those who had recordings that extended from baseline through washout). Circadian system functionality was evaluated by continuously monitoring wrist skin temperature using a temperature sensor (Thermochron iButton DS1921H; Maxim, Dallas, Tex.) (Sarabia et al. 2008). A nonparametric analysis was performed for each participant to characterize DST as previously described (Sarabia et al. 2008; Ortiz-Tudela et al. 2010).
Briefly, this analysis includes the following parameters: (i) the inter-daily stability (the constancy of 24-hour rhythmic pattern over days, IS); (ii) intra-daily variability (rhythm fragmentation, IV); (iii) average of 10-minute intervals for the 10 hours with the minimum temperature (L10); (iv) average of 10-minute intervals for the 5 hours with the maximum temperature (M5) and the relative amplitude (RA), which was determined by the difference between M5 and L10, divided by the sum of both. Finally, the Circadian Function Index (CFI) was calculated by integrating IS, IV, and RA. Consequently, CFI is a global measure that oscillates between 0 for the absence of circadian rhythmicity and 1 for a robust circadian rhythm (Ortiz-Tudela et al., 2010).

Solubility in water = format: physicochemical; details: pH<3.5 (the pH of gastric fluid)
αS = αS (Homo sapiens, UniProt P37840); details: in vitro; cited from earlier work
[4] = fixed dose vs baseline, 12 patients

dissolution (Solubility in water): readily dissolves
SMILES: CC(C)[C@@H](CC[C@@H](C)[C@H]1CC[C@H]2[C@@H]3[C@H](O)C[C@H]4C[C@@H](NCCCNCCCCN)CC[C@]4(C)[C@H]3CC[C@]12C)OS(=O)(=O)O (single isomer, unassigned) [squalamine (ENT-01), squalamine]
Abdominal pain, Mild [1]: 2(20) n, %
Abdominal pain, Moderate [1]: 3(30) n, %
Blood in urine, Moderate [1]: 0 n, %
Diarrhea, Mild [1]: 1(10) n, %
Diarrhea, Moderate [1]: 3(30) n, %
Diarrhea, Severe [1]: 0 n, %
Difficulty falling asleep, Mild [1]: 0 n, %
Difficulty falling asleep, Moderate [1]: 0 n, %
Dizziness, Mild [1]: 0 n, %
Dizziness, Moderate [1]: 0 n, %
Eye infection, Mild [1]: 0 n, %
Eye infection, Moderate [1]: 0 n, %
Flatulence, Mild [1]: 2(20) n, %
Flatulence, Moderate [1]: 0 n, %
Headache, Mild [1]: 1(10) n, %
Headache, Moderate [1]: 0 n, %
Increased urinary frequency, Mild [1]: 0 n, %
Increased urinary frequency, Moderate [1]: 0 n, %
Loss of appetite, Moderate [1]: 0 n, %
Lower GI bleed, Severe [1]: 0 n, %
Nausea, Mild [1]: 4(40) n, %
Nausea, Moderate [1]: 0 n, %
Skin lesions-rash, Mild [1]: 0 n, %
Skin lesions-rash, Moderate [1]: 0 n, %
Urinary retention, Mild [1]: 0 n, %
Urinary retention, Moderate [1]: 0 n, %
Urinary tract infection, Mild [1]: 0 n, %
Urinary tract infection, Moderate [1]: 0 n, %
Vomiting, Mild [1]: 1(10) n, %
Vomiting, Moderate [1]: 0 n, %
Worsening acid reflux, Mild [1]: 0 n, %
Worsening acid reflux, Moderate [1]: 0 n, %
Worsening hemorrhoid, Mild [1]: 0 n, %
Worsening hemorrhoid, Moderate [1]: 0 n, %
Blood in urine, Mild ([1]; unrelated to ENT-01): 1(10) n, %
Loss of appetite, Mild ([1]; unrelated to ENT-01): 1(10) n, %
CSBM, weekly average (mean, SD) [2]: 3.8 CSBM/week and 3.8 (2.40) CSBM/week
PAC-SYM (mean, SD) [2]: 1.1 (0.49)
Suppository use / rescue medication, weekly average (mean, SD) [2]: 0.3 /week
Consistency, Bristol stool scale 1-7 (mean, SD) ([2]; listed as aminosterol): 4.1
Ease of passage, Ease of evacuation scale (mean, SD) ([2]; listed as aminosterol): 3.7
circadian function index (CFI) [3, 4]: increasing
relative amplitude (RA) [3, 4]: increasing
rhythm fragmentation (intra-daily variability, IV) [3, 4]: reducing
rhythm stability (inter-daily stability, IS) [3, 4]: increasing
impact on the circadian rhythm of skin temperature ([3]; oral administration, 12 patients with evaluable data): significant positive impact
circadian function index (CFI) ([3]; wash-out period, 12 patients): improvement persisted
rhythm stability (IS) ([3]; wash-out period, 12 patients): improvement persisted
formation of aggregates of αS (αS): inhibit the formation of aggregates of αS
